Earlier results, collected in patent publication US20030021749A1, “Treatment of cancer and other diseases by administration of positron-emitting radiopharmaceuticals” (priority 2000, published 2003).

Settings: compared with FDG

In the case of `C[N+](C)(CF)CCO` [FCH, fluorine-18 fluorocholine], the “accumulation in normal brain tissue” value is listed as “does not accumulate in normal brain tissue as readily as FDG” and the “concentration in tumor tissues” value is listed as “higher concentration in tumor tissues”.
